These results are taken from US20240382494A1, “THERAPEUTIC COMPOUNDS” (priority 2023, published 2024).

Usually EC50 stands for the midpoint of the concentration-response curve. As a reminder, the CC50 is the concentration at which the toxic effect on the cells reaches its halfway point. A word on the IC50: it is the midpoint of a concentration-inhibition curve.

Data set [1] has as its system SARS-CoV-2 viral replication. The note with it: cited from earlier work.
Data set [2] in a line: Cytotoxicity assay in Vero E6 cells (neutral red uptake). The class given is cell-based. The note with it: African green monkey; Vero E6 cells, 2 days at 37° C., neutral red uptake; read-out: Vero CC50.
Another data set concerns the target SARS-CoV-2 PLpro (Severe acute respiratory syndrome coronavirus 2, UniProt P0DTD1). The data set can be described thus: FRET-based PLpro enzymatic assay. The format is biochemical. The note with it: 200 nM PLpro, 10 μM FRET substrate, 30 min preincubation at 30° C.; read-out: IC50. Put shortly:
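200 nM PLpro in 50 mM Hepes pH 7.5, 0.01% Triton X-100, 5 mM DTT, preincubated with compound 30 min at 30 °C; 10 μM final FRET substrate.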

`Cc1ccc(N)cc1C(=O)N[C@H](C)c1cccc2ccccc12` [GRL0617]: the EC50 in data set [1] was about 20 µM.

As to `COc1cc(-c2cc([C@@H](C)NC(=O)c3cc(OCCN(C)C)ccc3C)c3ccccc3n2)cs1` [Example 68, (R)-5-(2-(dimethylamino)ethoxy)-N-(1-(2-(5-methoxythiophene-3-yl)quinolin-4-yl)ethyl)-2-methylbenzamide], in data set [2], the CC50 at 2 days stood at 13.9 ± 4.32 µM. Moreover, the 50% inhibitory concentration (IC50) on SARS-CoV-2 PLpro was under 0.5 µM.

For `Cc1ccc(OCCN(C)C)cc1C(=O)N[C@H](C)c1cc(-c2ccco2)nc2ccccc12` [Example 4, (R)5-(2-(dimethylamino)ethoxy)-N-(1-(2-(furan-2-yl)quinolin-4-yl)ethyl)-2-methylbenzamide], the CC50 at 2 days in data set [2] came out at 57.3 ± 20.4 µM. In addition, on SARS-CoV-2 PLpro, the IC50 is under 0.5 µM.

Consider `Cc1ccc(N2CCN(C)CC2)cc1C(=O)N[C@H](C)c1cc(-c2ccco2)nc2ccccc12` [Example 74, (R)—N-(1-(2-(furan-2-yl)quinolin-4-yl)ethyl)-2-methyl-5-(4-methylpiperazin-1-yl)benzamide], for which the CC50 at 2 days in data set [2] stood at 19.5 ± 1.13 µM. On SARS-CoV-2 PLpro, the IC50 was under 0.5 µM.

Turning to `Cc1ccc(OCCN(C)C)cc1C(=O)N[C@H](C)c1cc(-c2cnn(CC(F)(F)F)c2)nc2ccccc12` [Example 10, (R)-5-(2-(dimethylamino)ethoxy)-2-methyl-N-(1-(2-(1-(2,2,2-trifluoroethyl)-1H-pyrazol-4-yl)quinolin-4-yl)ethyl)benzamide], the CC50 at 2 days in data set [2] was 60.8 ± 14.1 µM. Moreover, at SARS-CoV-2 PLpro, the IC50 was under 0.5 µM.

On to `Cc1ccc(OCCN(C)C)cc1C(=O)N[C@H](C)c1cc(-c2ccn[nH]2)nc2ccccc12` [Example 15, (R)—N-(1-(2-(1H-pyrazol-5-yl)quinolin-4-yl)ethyl)-5-(2-(dimethylamino)ethoxy)-2-methylbenzamide], for which the CC50 at 2 days in data set [2] is 63.2 ± 9.51 µM. In addition, the IC50 at SARS-CoV-2 PLpro is under 0.5 µM.

For `Cc1ccc(OCCN(C)C)cc1C(=O)N[C@H](C)c1cc(-c2cnn(C(F)F)c2)nc2ccccc12` [Example 3, (R)—N-(1-(2-(1-(difluoromethyl)-1H-pyrazol-4-yl)quinolin-4-yl)ethyl)-5-(2-(dimethylamino)ethoxy)-2-methylbenzamide], the CC50 at 2 days in data set [2] was determined as 15.2 ± 2.54 µM. Also, on SARS-CoV-2 PLpro, the IC50 is under 0.5 µM.

In the case of `Cc1ccc(OC[C@@H]2CCCN2C)cc1C(=O)N[C@H](C)c1cc(-c2ccn(C)n2)nc2ccccc12` [Example 98, 2-methyl-N—((R)-1-(2-(1-methyl-1H-pyrazol-3-yl)quinolin-4-yl)ethyl)-5-(((S)-1-methylpyrrolidin-2-yl)methoxy)benzamide], the CC50 at 2 days in data set [2] was 18.8 ± 1.49 µM. On SARS-CoV-2 PLpro, the IC50 was under 0.5 µM.

For the compound `COCCn1cc(-c2cc([C@H](C)NC(=O)c3cc(OCCN(C)C)ccc3C)c3ccccc3n2)cn1` [Example 19, (S)-5-(2-(dimethylamino)ethoxy)-N-(1-(2-(1-(2-methoxyethyl)-1H-pyrazol-4-yl)quinolin-4-yl)ethyl)-2-methylbenzamide], the CC50 at 2 days in data set [2] is over 125 µM. For the same compound, the IC50 on SARS-CoV-2 PLpro is 1 to 5 µM.

For `Cc1ccc(N(C)CC2CN(C)C2)cc1C(=O)N[C@H](C)c1cc(-c2cnn(C)c2)nc2ccccc12` [Example 89, (R)-2-methyl-5-(methyl((1-methylazetidin-3-yl)methyl)amino)-N-(1-(2-(1-methyl-1H-pyrazol-4-yl)quinolin-4-yl)ethyl)benzamide], the CC50 at 2 days in data set [2] is 89.3 µM. The IC50 at SARS-CoV-2 PLpro was in the range of 1 to 5 µM.

As for `Cc1ccc(OCCN(C)C)cc1C(=O)N[C@H](C)c1cc(-c2cnn(CC(=O)N(C)C)c2)nc2ccccc12` [Example 71, (R)—N-(1-(2-(1-(2-(dimethylamino)-2-oxoethyl)-1H-pyrazol-4-yl)quinolin-4-yl)ethyl)-5-(2-(dimethylamino)ethoxy)-2-methylbenzamide], the CC50 at 2 days in data set [2] is over 250 µM. Besides, the IC50 at SARS-CoV-2 PLpro was under 0.5 µM.

Turning to `Cc1ccc(OCCN(C)C)cc1C(=O)N[C@H](C)c1cc(-c2cncs2)nc2ccccc12` [Example 5, (R)-5-(2-(dimethylamino)ethoxy)-2-methyl-N-(1-(2-(thiazol-5-yl)quinolin-4-yl)ethyl)benzamide], the CC50 at 2 days in data set [2] was found to be 44.7 ± 11.7 µM. In addition, the IC50 on SARS-CoV-2 PLpro is under 0.5 µM.

As to `Cc1ccc(OC[C@@H]2C[C@@H](F)CN2C)cc1C(=O)NC1(c2cc(-c3cnn(C)c3)nc3ccccc23)CC1` [Example 114, 5-(((2S,4R)-4-fluoro-1-methylpyrrolidin-2-yl)methoxy)-2-methyl-N-(1-(2-(1-methyl-1H-pyrazol-4-yl)quinolin-4-yl)cyclopropyl)benzamide], the CC50 at 2 days in data set [2] came out at 51.3 ± 6.52 µM. Besides, on SARS-CoV-2 PLpro, the IC50 is under 0.5 µM.

Turning to `Cc1ccc(OC[C@@H]2CCN2C)cc1C(=O)NC1(c2cc(-c3cnn(C)c3)nc3ccccc23)CC1` [Example 115, (S)-2-methyl-N-(1-(2-(1-methyl-1H-pyrazol-4-yl)quinolin-4-yl)cyclopropyl)-5-((1-methylazetidin-2-yl)methoxy)benzamide], the CC50 at 2 days in data set [2] was 127 ± 7.89 µM. Further, the IC50 on SARS-CoV-2 PLpro was under 0.5 µM.

Take `Cc1ccc(OCCN(C)C)cc1C(=O)N[C@H](C)c1cc(-c2cncn2C)nc2ccccc12` [Example 66, (R)-5-(2-(dimethylamino)ethoxy)-2-methyl-N-(1-(2-(1-methyl-1H-imidazol-5-yl)quinolin-4-yl)ethyl)benzamide]: the CC50 at 2 days in data set [2] turned out to be 79.5 ± 8.62 µM. Besides, on SARS-CoV-2 PLpro, the IC50 is under 0.5 µM.

Turning to `Cc1ccc(N2CCN(C)[C@H](C)C2)cc1C(=O)N[C@H](C)c1cc(-c2ccn(C)n2)nc2ccccc12` [Example 99, 5-((R)-3,4-dimethylpiperazin-1-yl)-2-methyl-N—((R)-1-(2-(1-methyl-1H-pyrazol-3-yl)quinolin-4-yl)ethyl)benzamide], the CC50 at 2 days in data set [2] came to 24.3 ± 2.62 µM. In addition, at SARS-CoV-2 PLpro, the IC50 was under 0.5 µM.

Consider `Cc1ccc(OCC2CN(C)C2)cc1C(=O)N[C@H](C)c1cc(-c2cnn(C)c2)nc2ccccc12` [Example 91, (R)-2-methyl-N-(1-(2-(1-methyl-1H-pyrazol-4-yl)quinolin-4-yl)ethyl)-5-((1-methylazetidin-3-yl)methoxy)benzamide], for which the CC50 at 2 days in data set [2] is 96.1 ± 5.36 µM. For the same compound, the IC50 on SARS-CoV-2 PLpro was under 0.5 µM.

In the case of `Cc1ccc(N2CCC(N(C)C)CC2)cc1C(=O)N[C@H](C)c1cc(-c2cnn(C)c2)nc2ccccc12` [Example 87, (R)-5-(4-(dimethylamino)piperidin-1-yl)-2-methyl-N-(1-(2-(1-methyl-1H-pyrazol-4-yl)quinolin-4-yl)ethyl)benzamide], the CC50 at 2 days in data set [2] was 73.8 ± 5.88 µM. Besides, the IC50 at SARS-CoV-2 PLpro was in the range of 1 to 5 µM.

For the compound `Cc1ccc(OCCN(C)C)cc1C(=O)N[C@H](C)c1cc(-c2cnc3[nH]ccc3c2)nc2ccccc12` [Example 60, (R)—N-(1-(2-(1H-pyrrolo[2,3-b]pyridin-5-yl)-quinolin-4-yl)ethyl)-5-(2-(dimethylamino)ethoxy)-2-methylbenzamide], in data set [2], the CC50 at 2 days is 25.8 ± 2.25 µM. Further, the IC50 on SARS-CoV-2 PLpro is over 5 µM.

With `Cc1ccc(OC[C@@H]2C[C@@H](F)CN2C)cc1C(=O)N[C@H](C)c1cc(-c2cnn(C)c2)nc2ccccc12` [Example 85, 5-(((2S,4R)-4-fluoro-1-methylpyrrolidin-2-yl)methoxy)-2-methyl-N—((R)-1-(2-(1-methyl-1H-pyrazol-4-yl)quinolin-4-yl)ethyl)benzamide], the CC50 at 2 days in data set [2] came out at 33.9 ± 3.74 µM. Besides, the IC50 on SARS-CoV-2 PLpro was under 0.5 µM.

With `Cc1ccc(OCCN(C)C)cc1C(=O)N[C@H](C)c1cc(-c2ccc3cn[nH]c3c2)nc2ccccc12` [Example 61, (R)—N-(1-(2-(1H-indazol-6-yl)quinolin-4-yl)ethyl)-5-(2-(dimethylamino)ethoxy)-2-methylbenzamide], in data set [2], the CC50 at 2 days was found to be 25.7 ± 2.09 µM. Further, at SARS-CoV-2 PLpro, the IC50 was over 5 µM.

`Cc1ccc(OCCN(C)C)cc1C(=O)N[C@H](C)c1cc(-c2ccc(N3CCN(C)CC3)s2)nc2ccccc12` [Example 48, (R)-5-(2-(dimethylamino)ethoxy)-2-methyl-N-(1-(2-(5-(4-methylpiperazin-1-yl)thiophen-2-yl)quinolin-4-yl)ethyl)benzamide]: the CC50 at 2 days in data set [2] came to 15.4 ± 7.94 µM. Further, at SARS-CoV-2 PLpro, the IC50 is under 0.5 µM.

As to `Cc1ccc(OCCN(C)C)cc1C(=O)N[C@H](C)c1cc(-c2cc[nH]c(=O)c2)nc2ccccc12` [Example 54, (R)-5-(2-(dimethylamino)ethoxy)-2-methyl-N-(1-(2-(2-oxo-1,2-dihydropyridin-4-yl)quinolin-4-yl)ethyl)benzamide], the CC50 at 2 days in data set [2] was over 125 µM. Further, on SARS-CoV-2 PLpro, the IC50 was 0.5 to 1 µM.

For the compound `Cc1ccc(N2CCN(C)CC2)cc1C(=O)N[C@H](C)c1cc(-c2ccn(C)n2)nc2ccccc12` [Example 97, (R)-2-methyl-N-(1-(2-(1-methyl-1H-pyrazol-3-yl)quinolin-4-yl)ethyl)-5-(4-methylpiperazin-1-yl)benzamide], in data set [2], the CC50 at 2 days worked out at 30.7 ± 2.45 µM. For the same compound, on SARS-CoV-2 PLpro, the IC50 is under 0.5 µM.

For the compound `Cc1ccc(N2CC(N(C)C)C2)cc1C(=O)N[C@H](C)c1cc(-c2cnn(C)c2)nc2ccccc12` [Example 95, (R)-5-(3-(dimethylamino)azetidin-1-yl)-2-methyl-N-(1-(2-(1-methyl-1H-pyrazol-4-yl)quinolin-4-yl)ethyl)benzamide], the CC50 at 2 days in data set [2] stood at 311 ± 21.1 µM. The IC50 at SARS-CoV-2 PLpro fell in the range of 0.5 to 1 µM.

On to `Cc1ccc(N2CCN(C)C3(CC3)C2)cc1C(=O)N[C@H](C)c1cc(-c2cnn(C)c2)nc2ccccc12` [Example 80, (R)-2-methyl-N-(1-(2-(1-methyl-1H-pyrazol-4-yl)quinolin-4-yl)ethyl)-5-(4-methyl-4,7-diazaspiro[2.5]octan-7-yl)benzamide], for which the CC50 at 2 days in data set [2] amounted to 49.7 ± 4.65 µM. Also, the IC50 on SARS-CoV-2 PLpro was under 0.5 µM.
